What was measured:
[1] = system: Jurkat-PD-1-NFAT-LUC cells; assay: IL-2 secretion by Jurkat-PD-1-NFAT-LUC cells co-cultured with Raji-PD-L1 cells (ELISA); type: cell-based, human; conditions: Raji-PD-L1 : Jurkat-PD-1-NFAT-LUC 1:1, CD3/CD28 antibody coated plate, 6 hours; 1 μM MTC or 10 μg/mL PD1 antibody; FIG. 1D
Procedure: (§1) (1) Jurkat cells were used to construct a stable cell line expressing PD-1. The pCAGin-PD-1 plasmid was electroporated into Jurkat cells, which were then screened with 900 μg/mL G418 antibiotic and flow-sorted for single clones. Jurkat-PD-1 cells were then electroporated into a DNA fragment that controls the luciferase gene through the NFAT-binding site (referred to as NFAT-LUC). A single clone was then flow-sorted and named clone 5. Using this cell, the expression level of IL-2 can be measured by the activity of luciferase. Raji cells stably expressing PD-L1 were constructed, and the pCDNA-PD-L1 plasmid was electroporated into the Raji cells, followed by screening with 2 μg/mL puromycin, and then flow-sorted single clones and named clone 1.
(3) A 96-well plate was coated with 10 μg/mL CD3 antibody/10 μg/mL CD28 antibody overnight at 4° C. and excess antibody was washed off with PBS. Raji cells or Raji-PD-L1 cells were co-cultured with Jurkat-PD-1-NFAT-LUC cells at a ratio of 1:1, or to a mixture of Raji-PD-L1 cells and Jurkat-PD-1-NFAT-LUC cells at a ratio of 1:1 was added 1 μM MTC or 10 μg/mL PD1 antibody for co-culture; after 6 hours of co-culture, the secretion of IL-2 in the supernatant was measured by ELISA.

EL4-OVA-mPDL1 cells = assay: EL4-OVA-mPDL1 subcutaneous transplanted tumor in Rag1−/− mice given CTL cells; type: in vivo, mouse; conditions: CTL cells by tail vein, MTC 40 mg/kg/day intragastric, PD-1 antibody 10 mg/kg/2 days intraperitoneal, vs CTL cell-only group, FIGS. 5B, C, D
Procedure: (1) Lymphoma cells overexpressing chicken ovalbumin OVA and mouse PD-L1, namely EL4-OVA-mPDL1 cells, were resuspended in BD Matrigel, in which, for one side of one mouse, 2×10^6 cells were resuspended in 100 μl BD Matrigel.
(2) The mixture of cells and Matrigel was inoculated into the left and right flanks of Rag1−/− mice subcutaneously, each at a dosage of 100 μl.
(3) When the tumor was fixed about 5 days after inoculation, activated OT-1 T cells (i.e., 2×10^6 CTL cells/mouse) were injected through the tail vein, and the mice were divided into 3 groups, namely the CTL cell group, the CTL cell +10 mg/kg/2 days PD-1 antibody group, and the CTL cell +40 mg/kg/day MTC group.
(4) The length and width of the transplanted tumor of each group of mice were measured from the day of tail vein injection of CTL cells, and every other day, and the tumor volume was calculated as length×width^2/2 (FIG. 5A).

B16-WT cells = assay: Killing of B16-WT melanoma cells, with or without CTL cells; type: cell-based, mouse; conditions: FIG. 4E
Procedure: (§2) (4) The B16-OVA group received no treatment, and the medium was replaced with water in the Water group. The other groups were treated with 10 μg/mL IFNγ. After 24 hours, except for the B16-OVA group, each group was co-cultured with CTL cells at a ratio of 1:5 for 4 hours, and treated with MTC […], LMT (1 μM) or anti-PD1 (PD-1 antibody, 10 μg/mL, Nivolumab, BMS). The death of B16-OVA in each group was observed by microscope, and then the killing ability of CTL cells to target cells was assessed. […] The IFN-γ+MTC group and the IFN-γ+LMT group were treated with 10 μg/mL IFN-γ for 24 hours. The cells were then mixed with CTL cells at a ratio of 1:5, co-cultured for 4 hours and treated with MTC (1 μM) or LMT (1 μM). The MTC and LMT groups were treated with MTC (10 μM) or LMT (10 μM) only. The killing ability against target cells was observed.

B16-OVA cells = assay: CTL killing of IFN-γ-treated B16-OVA melanoma cells (microscope); type: cell-based, mouse
Procedure: (3) Melanoma cells B16-OVA (B16 cells expressing OVA gene) were treated with 10 μg/mL IFN-γ for 24 hours, and then mixed with CTL cells at a ratio of 1:5 and co-cultured for 4 hours. Cells were treated with 1 μM MTC. B16-OVA cells treated with DMSO or MTC only (without IFN-γ treatment) were used as control. The apoptosis of B16-OVA was observed by microscope, and then the killing ability of CTL cells to target cells was assessed.
as §2

[2] = system: Jurkat-PD-1-NFAT-LUC cells; assay: NFAT-luciferase activity in Jurkat-PD-1-NFAT-LUC cells co-cultured with Raji-PD-L1 cells; type: cell-based, human; conditions: 4.86 μM MTC or LMT added with Raji-PD-L1 cells, 6 h co-culture; FIG. 1E
Procedure: as §1
(4) A 96-well plate was coated with 10 μg/mL CD3 antibody/10 μg/mL CD28 antibody overnight at 4° C., and excess antibody then washed off with PBS. Raji cells or Raji-PD-L1 cells were co-cultured with Jurkat-PD-1-NFAT-LUC cells at a ratio of 1:1, or to a mixture of Raji-PD-L1 cells and Jurkat-PD-1-NFAT-LUC cells at a ratio of 1:1 was added 4.86 μM MTC or LMT. Luciferase substrate was added after 6h co-culture and the luciferase activity was measured by a microplate reader.

Row | Compound | secretion of IL-2 in the supernatant [1] | tumor growth (tumor volume and tumor weight) (EL4-OVA-mPDL1 cells) | killing effect on B16-WT cells, combination with CTL cells (B16-WT cells; IFN-γ 10 μg/mL 24 hours, B16-WT : CTL 1:5, 4 hours, MTC (1 μM) or LMT (1 μM)) | killing effect on B16-WT cells, compound only (B16-WT cells; MTC (10 μM) or LMT (10 μM) only) | killing effects of CTL cells to B16-OVA cells (B16-OVA cells; B16-OVA treated with 10 μg/mL IFNγ 24 hours, B16-OVA : CTL 1:5, 4 hours, MTC (1 µM), LMT (1 μM), FIGS. 4C and 4D) | combined killing effect with CTL cells on B16-OVA compared with the anti-PD-1 group (B16-OVA cells; MTC (1 µM) or LMT (1 μM) vs anti-PD1 10 μg/mL, FIG. 4D) | luciferase activity [2]
1 | PD-1 antibody: anti-PD-1 antibody (Nivolumab, Bristol-Myers Squibb) used as comparator | sharply enhanced | inhibited | – | – | – | – | –
2 | CN(C)c1ccc2c(c1)Sc1cc(N(C)C)ccc1N2 [LMT, N3,N3,N7,N7-tetramethyl-10H-phenothiazine-3,7-diammonium dimesylate] | – | – | no killing effect | no killing effect | significantly enhanced | significantly stronger than that of the anti-PD-1 group | increased dramatically

Reference: patent US20220323454A1, “PHENOTHIAZINES AND THEIR DERIVATIVES FOR USE AS A MEDICAMENT” (Guangzhou Virotech Pharmaceutical Co., Ltd., priority 2019, published 2022)
